Laboratory results: paper PMC8437142 (The Journal of physiology, 2021)

Columns and labels:
[1] = system: opioid receptors; conditions: ref Lewis et al., 2010; Doyle & Murphy, 2018; cited from earlier work
[2] = Serum morphine and metabolites by UPLC-MS/MS after s.c. morphine; conditions: rat, sc, 4 mg/kg

| Compound | affinity for opioid receptors [1] | concentration at 4.5 h [2] |
| --- | --- | --- |
| CN1CC[C@]23c4c5ccc(O[C@@H]6O[C@H](C(=O)O)[C@@H](O)[C@H](O)[C@H]6O)c4O[C@H]2[C@@H](O)C=C[C@H]3[C@H]1C5 [Morphine-3-glucuronide, morphine-3-glucuronide] | no affinity | – |
| CN1CC[C@]23c4c5ccc(O)c4O[C@H]2[C@@H](O[C@@H]2O[C@H](C(=O)O)[C@@H](O)[C@H](O)[C@H]2O)C=C[C@H]3[C@H]1C5 [Morphine-6-glucuronide, morphine-6-glucuronide] | – | < 1 ng/mL |
